Assays:
Type in all cases: biochemical
JAK2 = target: T1, JAK2 (Homo sapiens, UniProt O60674); assay: JAK2 inhibition (Table 4); details: read-out: JAK2 Ki
T1 construct: made in house; host or cells: SF9 insect cells (baculovirus)

JAK3 = target: T2, JAK3 (Homo sapiens, UniProt P52333); assay: JAK3 inhibition (Table 4); details: read-out: JAK3 Ki
T2 construct: made in house; host or cells: SF9 insect cells (baculovirus)

JAK1 = target: T3, JAK1 (Homo sapiens, UniProt P23458); assay: JAK1 inhibition (Table 4); details: read-out: JAK1 Ki
T3 construct: made in house; host or cells: SF9 insect cells (baculovirus)

TYK2 = target: T4, TYK2 (Homo sapiens, UniProt P29597); assay: TYK2 inhibition (Table 4)
T4 construct: made in house; host or cells: SF9 insect cells (baculovirus)
T4 sequence (P29597 873-1187): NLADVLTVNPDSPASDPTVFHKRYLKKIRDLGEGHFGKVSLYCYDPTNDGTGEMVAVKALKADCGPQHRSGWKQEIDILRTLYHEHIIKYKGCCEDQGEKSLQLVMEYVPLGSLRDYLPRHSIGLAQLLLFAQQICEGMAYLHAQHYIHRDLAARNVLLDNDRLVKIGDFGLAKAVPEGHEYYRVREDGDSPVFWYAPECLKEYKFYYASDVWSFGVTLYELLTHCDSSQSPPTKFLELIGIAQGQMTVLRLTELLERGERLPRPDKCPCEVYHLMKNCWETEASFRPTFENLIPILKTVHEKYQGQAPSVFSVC

T2 sequence (P52333 783-1124): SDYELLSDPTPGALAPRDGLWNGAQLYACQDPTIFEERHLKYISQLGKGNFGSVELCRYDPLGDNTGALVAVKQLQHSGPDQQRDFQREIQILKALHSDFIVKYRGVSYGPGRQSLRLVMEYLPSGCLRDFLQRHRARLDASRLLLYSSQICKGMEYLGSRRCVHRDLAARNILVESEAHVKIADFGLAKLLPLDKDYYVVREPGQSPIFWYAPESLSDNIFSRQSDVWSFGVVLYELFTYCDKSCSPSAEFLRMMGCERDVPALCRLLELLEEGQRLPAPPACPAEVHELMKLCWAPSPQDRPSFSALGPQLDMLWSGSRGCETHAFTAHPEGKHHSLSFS
T3 sequence (P23458 852-1154): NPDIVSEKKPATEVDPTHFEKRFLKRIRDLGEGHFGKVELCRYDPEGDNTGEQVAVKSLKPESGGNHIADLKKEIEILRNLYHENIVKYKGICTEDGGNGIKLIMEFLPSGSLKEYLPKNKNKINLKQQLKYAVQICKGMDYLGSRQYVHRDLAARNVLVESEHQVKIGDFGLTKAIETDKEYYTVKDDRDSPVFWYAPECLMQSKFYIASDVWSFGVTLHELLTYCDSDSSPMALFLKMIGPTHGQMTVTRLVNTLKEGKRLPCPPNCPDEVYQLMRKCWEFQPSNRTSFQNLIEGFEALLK
T1 sequence (O60674 812-1132): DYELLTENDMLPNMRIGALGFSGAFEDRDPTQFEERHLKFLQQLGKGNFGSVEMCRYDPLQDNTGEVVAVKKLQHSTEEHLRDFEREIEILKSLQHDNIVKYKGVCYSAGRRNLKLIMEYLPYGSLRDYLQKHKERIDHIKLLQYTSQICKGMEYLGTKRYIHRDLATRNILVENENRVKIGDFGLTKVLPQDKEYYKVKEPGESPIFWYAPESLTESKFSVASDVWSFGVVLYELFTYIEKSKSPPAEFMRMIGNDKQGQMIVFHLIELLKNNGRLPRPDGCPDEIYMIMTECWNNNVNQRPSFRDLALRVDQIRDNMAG

Ki (JAK2) [nM] | Ki (JAK3) [nM] | Ki (JAK1) [nM] | Ki (TYK2) [nM] | Compound
2.57 | 19.3 | 0.85 | 6.79 | OC[C@H]1CC[C@H](n2cnc3cnc4[nH]ccc4c32)CC1 [Example 631, trans [4-(6H-1,2,3,5,6-Tetraaza-as-indacen-1-yl)-cyclohexyl]-methanol]
33.8 | 322 | 25.2 | 122 | COC1CNCCC1n1cnc2cnc3[nH]ccc3c21 (racemic) [Example 537, 1-(3-Methoxy-piperidin-4-yl)-1,6-dihydro-1,3,5,6-tetraaza-as-indacene]
3.67 | 59.6 | 1.38 | 78.6 | N#Cc1cc(CN2CCC(n3cnc4cnc5[nH]ccc5c43)CC2)ccn1 [Example 313, 4-[4-(6H-1,3,5,6-Tetraaza-as-indacen-1-yl)-piperidin-1-ylmethyl]-pyridine-2-carbonitrile]
9.66 | 82.7 | 3.93 | 25.1 | N#C[C@H]1CC[C@H](n2cnc3cnc4[nH]ccc4c32)CC1 [Example 640, trans 4-(6H-1,2,3,5,6-Tetraaza-as-indacen-1-yl)-cyclohexanecarbonitrile]
63.4 | 656 | 16 | 77.6 | c1cncc(CN[C@H]2CC[C@H](n3cnc4cnc5[nH]ccc5c43)CC2)c1 [Example 336, Pyridin-3-ylmethyl-[4-(6H-1,3,5,6-tetraaza-as-indacen-1-yl)-cyclohexyl]-amine]
253 | 220 | 153 | 1050 | COCCN1CCC[C@@H](n2cnc3cnc4[nH]ccc4c32)C1 [Example 61, 1-[(R)-1-(2-Methoxy-ethyl)-piperidin-3-yl]-1,6-dihydro-1,3,5,6-tetraaza-as-indacene]
19.9 | 101 | 5.55 | 63.2 | O=CN1CCC(n2cnc3cnc4[nH]ccc4c32)C(F)(F)C1 (stereo not shown) [Example 180, 3,3-Difluoro-4-(6H-1,2,3,5,6-tetraaza-as-indacen-1-yl)-piperidine-1-carbaldehyde]
60.2 | 210 | 50 | 174 | CC(C)(O)[C@H]1CC[C@@H](n2cnc3cnc4[nH]ccc4c32)CC1 [Example 957, Cis-2-[4-(6H-1,3,5,6-Tetraaza-as-indacen-1-yl)-cyclohexyl]-propan-2-ol]

Continued, compound first:

Compound | Ki (JAK2) [nM] | Ki (JAK3) [nM] | Ki (JAK1) [nM] | Ki (TYK2) [nM]
CC(=O)N(C)CCc1nc2cnc3[nH]ccc3c2n1C1CCN(C(C)CC#N)CC1 (racemic) [Example 398, N-(2-{1-[1-(2-Cyano-1-methyl-ethyl)-piperidin-4-yl]-1,6-dihydro-1,3,5,6-tetraaza-as-indacen-2-yl}-ethyl)-N-methyl-acetamide] | 47 | 179 | 20.8 | 241
CC(F)CN1CCC(n2c([C@@H](C)O)nc3cnc4[nH]ccc4c32)CC1 (stereo partly drawn) [Example 697, (R)-1-{1-[1-(2-Fluoro-propyl)-piperidin-4-yl]-1,6-dihydro-1,2,3,5,6-tetraaza-as-indacen-2-yl}-ethanol] | 64.8 | 36.1 | 3.1 | 32.5
c1cc2c(ncc3nc(C4CCC4)n(C4CCNCC4)c32)[nH]1 [Example 326, 2-Cyclobutyl-1-piperidin-4-yl-1,6-dihydro-1,3,5,6-tetraaza-as-indacene] | 938 | 552 | 27.6 | 2630
Cc1nc2cnc3[nH]ccc3c2n1[C@H]1CCC[C@](C)(O)C1 [Example 886, (1S,3S)-1-Methyl-3-(2-methyl-6H-1,3,5,6-tetraaza-as-indacen-1-yl)-cyclohexanol] | 16.7 | 41.7 | 10.3 | 52.8
CC(C)c1nc2cnc3[nH]ccc3c2n1C1CCN(Cc2ccccc2)CC1 [Example 223, 1-(1-Benzyl-piperidin-4-yl)-2-isopropyl-1,6-dihydro-1,3,5,6-tetraaza-as-indacene] | 24.4 | 8.11 | 3.74 | 1470
